Data from ChEMBL document CHEMBL1201862, “PubChem BioAssay data set” (2004).
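Cultured in 96-well plates, cells were exposed to test compound for 48 hours across five concentrations. At the GI50, growth is halved.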 The source made the active and inactive calls. Rule as the data show it: active = GI50 up to about 1.1 µM and inactive = higher.

Experiments:
Assay in all cases: NCI anticancer screen, dose series, 48 h
M19-MEL = system: M19-MEL
HOP-18 = system: HOP-18
KM-20L2 = system: KM-20L2
RXF 631 = system: RXF 631
XF498 = system: XF498
SNB-78 = system: SNB-78
DMS-114 = system: DMS-114
DMS-273 = system: DMS-273
T47D = system: T47D

| SMILES | GI50 (M19-MEL) | GI50 (HOP-18) | GI50 (KM-20L2) | GI50 (RXF 631) | GI50 (XF498) | GI50 (SNB-78) | GI50 (DMS-114) | GI50 (DMS-273) | GI50 (T47D) |
| --- | --- | --- | --- | --- | --- | --- | --- | --- | --- |
| C=CCC1[C@@H](C(C)(C)C(C(C)=O)C(=O)C(=O)OC)OC(C(C)(C)C)N1C(=O)OC (stereo not given in full) | > 100 µM (inactive) | > 100 µM (inactive) | > 100 µM (inactive) | > 100 µM (inactive) | > 100 µM (inactive) | > 100 µM (inactive) |  |  |  |
| CC(=O)OCCOCNC(=S)N/N=C/c1ccc2ccccc2n1 | 28.6 µM (inactive) | 75.9 µM (inactive) | 19.5 µM (inactive) | 55.6 µM (inactive) | > 100 µM (inactive) | > 100 µM (inactive) | 22.6 µM (inactive) | 36.1 µM (inactive) |  |
| COc1ccc(OC)c(NCC#N)c1 | > 100 µM (inactive) | > 100 µM (inactive) | > 100 µM (inactive) | > 100 µM (inactive) | > 100 µM (inactive) |  | > 100 µM (inactive) | > 100 µM (inactive) |  |
| COc1ccc(NC(=O)C2C(=O)N(c3ccc(OC)cc3)C(=O)/C2=N\N)cc1 (stereo not given) | > 100 µM (inactive) | > 100 µM (inactive) | > 100 µM (inactive) | > 100 µM (inactive) |  | > 100 µM (inactive) | > 100 µM (inactive) |  |  |
| COC(=O)/C([Se]c1c(C)cc(C)cc1C)=C(/[Se]c1c(C)cc(C)cc1C)C(=O)OC | > 100 µM (inactive) | > 100 µM (inactive) | > 100 µM (inactive) | > 100 µM (inactive) |  | > 100 µM (inactive) | > 99.3 µM (inactive) | > 100 µM (inactive) |  |
| O=C1/C(=C/c2ccccc2)CN(C(=O)Oc2ccc(Cl)cc2)C/C1=C\c1ccccc1 | 1.12 µM (active) | 13.1 µM (inactive) | 2.71 µM (inactive) |  | 2.29 µM (inactive) | 2.96 µM (inactive) | 1.79 µM (inactive) | 1.83 µM (inactive) |  |
| NC(=O)c1csc(C2OC(CO)C(O)C2O)n1 (stereo not given) | 29 µM (inactive) | 1170 µM (inactive) | 43.8 µM (inactive) |  | 67.8 µM (inactive) | 92.7 µM (inactive) | 61.1 µM (inactive) | 30.8 µM (inactive) | 2790 µM (inactive) |
| Ic1cc2c(cc1C1SCCCS1)OCO2 | > 100 µM (inactive) | > 100 µM (inactive) | > 100 µM (inactive) | > 100 µM (inactive) |  | > 100 µM (inactive) | > 100 µM (inactive) | > 100 µM (inactive) |  |
| Cl[Si]1(Cl)Oc2ccccc2O[Si](Cl)(Cl)Oc2ccccc2O1 | 12 µM (inactive) |  | 27.1 µM (inactive) | 7.78 µM (inactive) | 15.2 µM (inactive) |  | 1.88 µM (inactive) | 7.38 µM (inactive) |  |
| CC(=O)OCCOCNC(=S)N/N=C/c1cc([N+](=O)[O-])ccc1O | > 100 µM (inactive) | > 100 µM (inactive) | 61.1 µM (inactive) | > 100 µM (inactive) | > 100 µM (inactive) | > 100 µM (inactive) | 30.7 µM (inactive) | > 100 µM (inactive) |  |
